Source: patent US11351154B2, “Molecular genetic approach to treatment and diagnosis of alcohol and drug dependence” (University of Virginia Patent Foundation, priority 2011, dated 2022)

Tests used:
[1] = test system: subjects of the ondansetron clinical trial (251 subjects); test: CART decision-tree subgroup analysis of ondansetron treatment effect on percentage heavy drinking; type: in vivo, human; conditions: for E(Y|T=1), Y=phd base90-mean(phdweek): T=1(ondansetron)
Description: A decision tree is a structure that can be used to divide up a large collection of records into successively smaller sets of records by applying a sequence of simple decision rules. One advantage of decision tree is that the results can be easily interpreted. CART is a popular decision tree algorithm first published in Breiman et al 1984. CART starts by dividing data into 2 sub-groups (child nodes) that are homogeneous with respect to a particular target variable, in our case the target variable is the binary class label Z. By doing exhaustive search over all possible cutoffs for all possible candidate covariates, sub-groups are formed by identifying optimal split point for the optimal candidate covariate. Repeat the process recursively at each child node until one of the stopping criteria is met. In the end, CART prunes tree to smaller optimal size using cross-validation. After the final tree is determined, the class label (treatment) for “new subjects” is given by running them down the tree and identifying which terminal node they belong. The class label of the terminal node is formed by majority vote of cases in this node, that is if the proportion of class 1 in this node p>0.5, then the class label is 1, otherwise is 0. Let t denote the node, which is a region of the covariates space. A Split denoted by s on a numeric variable Xj take the form Xj<xji, where xji is a cut-off selected by trying all values of Xj in the data set as candidate split points. s splits the node t into left and right daughter nodes […]. The impurity function is used as a measure of node homogeneity. To calculate the impact of a split, compute increase in purity (or reduction in impurity) and choose a split that gives maximal value over all possible splits as the best splitter for node t. Gini criterion is the usual splitting criteria chosen by CART for categorical target. […] The full tree would not do the best job when applied to new dataset. The CART identifies candidate sub-trees through a process of repeated pruning. CART relies on a concept called adjusted error rate, AERα(T)=error rate(T)+α node count(T). This is a measure that increases each tree(T)'s misclassification rate on the training set by imposing a complexity penalty based on the number of final nodes in the tree. One can form a sequence of sub-trees of the full tree by varying the penalty value (cost complexity parameter), α and determining the tree that minimizes the adjusted error rate. After deleting the subjects with missing data, 251 subjects were included in the data analysis. Y=phd […]=(phd base90,Onage,[…], . . . , […]). There are total 21 genotypes. T=1(ondansetron) and T=0(placebo). The goal is to find a subgroup defined by X where the treatment effect is significant. After transforming this problem to a classification problem. CART was used to find the best subgroup with decision tree form.

[2] = test system: individuals in alcohol trials; conditions: naltrexone dose of 50 mg/day; cited from earlier work
[3] = test system: individuals who take topiramate; conditions: cited from earlier work

With `Cc1nccn1CC1CCc2c(c3ccccc3n2C)C1=O` (centres unmarked) [OND, 9-methyl-3-[(2-methyl-1H-imidazol-1-yl)methyl]-1,2,3,9-tetrahydrocarbazol-4-one] the “E(Y|T=1), Y=phd base90-mean(phdweek)” value ([1]; overall sample, 251 subjects) was 32.1%, the “overall sample mean difference E(Y|T=1)−E(Y|T=0)” value ([1]; overall sample, ondansetron minus placebo) was 0.2% and the “E(Y|T=1), Y=phd base90-mean(phdweek)” value ([1]; subgroup gen1=I (rs150226=AA or AG), 42 subjects) was 50.9%. For the same compound, the “sample mean difference E(Y|T=1)−E(Y|T=0)” value ([1]; subgroup gen1=I (rs150226=AA or AG), ondansetron minus placebo) was 28.7%, the “E(Y|T=1), Y=phd base90-mean(phdweek)” value ([1]; subgroup gen2: rs1150226=GG, rs1176719=AA or AG, phd base90≥0.8663, 49 subjects) was 37.6% and the “sample mean difference E(Y|T=1)−E(Y|T=0)” value ([1]; subgroup gen2: rs1150226=GG, rs1176719=AA or AG, phd base90≥0.8663, ondansetron minus placebo) was 15.0%. For the same compound, the “E(Y|T=1), Y=phd base90-mean(phdweek)” value ([1]; subgroup gen (gen1 + gen2), 91 subjects) was 43.0% and the “sample mean difference E(Y|T=1)−E(Y|T=0)” value ([1]; subgroup gen (gen1 + gen2), ondansetron minus placebo) was 20.6%.

For `Cl.O=C1CC[C@@]2(O)[C@H]3Cc4ccc(O)c5c4[C@@]2(CCN3CC2CC2)[C@H]1O5` [naltrexone, 17-(Cyclopropylmethyl)-4,5a-epoxy-3,14-dihydroxymorphinan-6-one hydrochloride], the “individuals unable to tolerate the dose” value [2] is listed as “about 15%”.

For `CC1(C)O[C@@H]2[C@@H](CO[C@@]3(COS(N)(=O)=O)OC(C)(C)O[C@@H]23)O1` [topiramate, 2,3:4,5-Bis-O-(1-methylethylidene)-beta-D-fructopyranose sulfamate], the “cognitive impairment reported, share of individuals” value ([3]; general population) is given as 2.4% and the “occurrence rate of cognitive impairment” value ([3]; substance abuse field) is given as “about 18.7%”.
